Assay results: patent publication US20250171437A1 (Agios Pharmaceuticals,Inc., priority 2022, published 2025)

The compounds below were run against T1, human PAH with the R408W mutation (A375 R408W cells) (Homo sapiens, UniProt P00439, R408W) (assay: Cell Based Phenylalanine Flux Assay). Settings: A375 R408W cells; 24 hrs with compound, then 20 μM sepiapterin and 800 μM 13C9,15N-Phenylalanine for 4 hours; 13C-Tyrosine by LC-MS; average where tested multiple times.
T1 construct: expressed in transfected cells
T1 sequence (P00439 1-452 R408W): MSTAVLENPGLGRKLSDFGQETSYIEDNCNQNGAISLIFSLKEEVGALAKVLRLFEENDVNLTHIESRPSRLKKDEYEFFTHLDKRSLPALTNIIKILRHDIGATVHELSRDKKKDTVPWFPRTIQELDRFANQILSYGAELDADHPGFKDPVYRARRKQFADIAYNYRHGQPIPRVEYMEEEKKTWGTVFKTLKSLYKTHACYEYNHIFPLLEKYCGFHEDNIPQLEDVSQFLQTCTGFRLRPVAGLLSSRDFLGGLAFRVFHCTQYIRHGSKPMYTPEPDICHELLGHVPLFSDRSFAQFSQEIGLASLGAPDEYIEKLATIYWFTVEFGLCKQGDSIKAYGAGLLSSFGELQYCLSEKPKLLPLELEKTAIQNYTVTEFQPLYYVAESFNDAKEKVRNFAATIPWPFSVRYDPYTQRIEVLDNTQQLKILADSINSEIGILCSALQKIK
Outline: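 Puromycin-selected A375 line, lentiviral hPAH R408W; cmpd 24 h, 37 °C, 5% CO2, 0.5% DMSO; then 20 μM sepiapterin + 800 μM 13C9,15N-Phe, 4 h; media extracted in 80% MeCN; 13C-Tyr by LC-MS; AC50 from 10-pt curves.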

| AC50 [nM] | Structure (SMILES) |
| --- | --- |
| ≤ 500 | CC(C)(O)c1nc(C(F)(F)F)c(C(=O)N2CCc3[nH]cnc3[C@H]2c2nc3cc(F)ccc3o2)o1 [Example 45, (S)-(4-(5-fluorobenzo[d]oxazol-2-yl)-6,7-dihydro-1H-imidazo[4,5-c]pyridin-5(4H)-yl)(2-(2-hydroxypropan-2-yl)-4-(trifluoromethyl)oxazol-5-yl)methanone] |
| ≤ 500 | O=C(c1ccnn1C(F)F)N1CCc2[nH]cnc2[C@H]1c1nc2ccccc2o1 [Example 563, (S)-(4-(benzo[d]oxazol-2-yl)-6,7-dihydro-1H-imidazo[4,5-c]pyridin-5(4H)-yl)(1-(difluoromethyl)-1H-pyrazol-5-yl)methanone] |
| ≤ 500 | CC(C)(O)c1nc(C(F)F)c(C(=O)N2CCc3[nH]cnc3[C@@H]2c2nc3cccc(F)c3o2)o1 [Example 194, (R)-(4-(difluoromethyl)-2-(2-hydroxypropan-2-yl)oxazol-5-yl)(4-(7-fluorobenzo[d]oxazol-2-yl)-6,7-dihydro-1H-imidazo[4,5-c]pyridin-5(4H)-yl)methanone] |
| 1000 to 5000 | O=C(c1nnc(-c2ccc(F)c(F)c2)o1)N1CCc2[nH]cnc2[C@@H]1c1nc2cc(F)ccc2o1 [Example 76, (R)-(5-(3,4-difluorophenyl)-1,3,4-oxadiazol-2-yl)(4-(5-fluorobenzo[d]oxazol-2-yl)-6,7-dihydro-1H-imidazo[4,5-c]pyridin-5(4H)-yl)methanone] |
| ≤ 500 | O=C(c1ocnc1C(F)F)N1CCc2[nH]cnc2[C@H]1c1nc2cc(Br)cc(F)c2o1 [Example 573, (S)-(4-(5-bromo-7-fluorobenzo[d]oxazol-2-yl)-6,7-dihydro-1H-imidazo[4,5-c]pyridin-5(4H)-yl)(4-(difluoromethyl)oxazol-5-yl)methanone] |
| 1000 to 5000 | Cc1ccc2oc([C@H]3c4nc[nH]c4CCN3C(=O)c3oc(-c4ccn(C)n4)nc3C(F)F)nc2c1 [Example 756, (R)-(4-(difluoromethyl)-2-(1-methyl-1H-pyrazol-3-yl)oxazol-5-yl)(4-(5-methylbenzo[d]oxazol-2-yl)-6,7-dihydro-1H-imidazo[4,5-c]pyridin-5(4H)-yl)methanone] |
| ≤ 500 | O=C(c1nnc(-c2ccccn2)o1)N1CCc2[nH]cnc2[C@H]1c1nc2c(F)cccc2o1 [Example 333, (S)-(4-(4-fluorobenzo[d]oxazol-2-yl)-6,7-dihydro-1H-imidazo[4,5-c]pyridin-5(4H)-yl)(5-(pyridin-2-yl)-1,3,4-oxadiazol-2-yl)methanone] |
| 500 to 1000 | CC(C)(O)c1nc(Br)c(C(=O)N2CCc3[nH]cnc3[C@H]2c2nc3ccc(F)cc3o2)o1 [Example 249, (S)-(4-bromo-2-(2-hydroxypropan-2-yl)oxazol-5-yl)(4-(6-fluorobenzo[d]oxazol-2-yl)-6,7-dihydro-1H-imidazo[4,5-c]pyridin-5(4H)-yl)methanone] |
| 1000 to 5000 | CCn1cnnc1C(=O)N1CCc2[nH]cnc2[C@H]1c1nc2cc(F)ccc2o1 [Example 885, (S)-(4-ethyl-4H-1,2,4-triazol-3-yl)(4-(5-fluorobenzo[d]oxazol-2-yl)-6,7-dihydro-1H-imidazo[4,5-c]pyridin-5(4H)-yl)methanone] |
| 1000 to 5000 | O=C(c1cnco1)N1CCc2[nH]cnc2[C@@H]1c1nc2cccc(F)c2o1 [Example 282, (R)-(4-(7-fluorobenzo[d]oxazol-2-yl)-6,7-dihydro-1H-imidazo[4,5-c]pyridin-5(4H)-yl)(oxazol-5-yl)methanone] |
| 1000 to 5000 | O=C(c1nnc(-c2cnn(C(F)F)c2)o1)N1CCc2[nH]cnc2[C@@H]1c1nc2ccccc2o1 [Example 842, (R)-(4-(benzo[d]oxazol-2-yl)-6,7-dihydro-1H-imidazo[4,5-c]pyridin-5(4H)-yl)(5-(1-(difluoromethyl)-1H-pyrazol-4-yl)-1,3,4-oxadiazol-2-yl)methanone] |
| ≤ 500 | O=C(c1oc(N2CCC(F)CC2)nc1C(F)F)N1CCc2[nH]cnc2[C@@H]1c1nc2cccc(F)c2o1 [Example 675, (R)-(4-(difluoromethyl)-2-(4-fluoropiperidin-1-yl)oxazol-5-yl)(4-(7-fluorobenzo[d]oxazol-2-yl)-6,7-dihydro-1H-imidazo[4,5-c]pyridin-5(4H)-yl)methanone] |
| 500 to 1000 | CC(C)(O)c1nc(C(F)F)c(C(=O)N2CCc3[nH]cnc3[C@H]2c2nc3cc(Cl)ccc3o2)o1 [Example 375, (S)-(4-(5-chlorobenzo[d]oxazol-2-yl)-6,7-dihydro-1H-imidazo[4,5-c]pyridin-5(4H)-yl)(4-(difluoromethyl)-2-(2-hydroxypropan-2-yl)oxazol-5-yl)methanone] |
| 500 to 1000 | Cn1cncc1-c1nc(C(F)F)c(C(=O)N2CCc3[nH]cnc3[C@@H]2c2nc3cccc(F)c3o2)o1 [Example 691, (R)-(4-(difluoromethyl)-2-(1-methyl-1H-imidazol-5-yl)oxazol-5-yl)(4-(7-fluorobenzo[d]oxazol-2-yl)-6,7-dihydro-1H-imidazo[4,5-c]pyridin-5(4H)-yl)methanone] |
| 1000 to 5000 | O=C(CC1(O)CCC1)N1CCc2[nH]cnc2[C@@H]1c1nc2cc(F)ccc2o1 [Example 56, (R)-1-(4-(5-fluorobenzo[d]oxazol-2-yl)-6,7-dihydro-1H-imidazo[4,5-c]pyridin-5(4H)-yl)-2-(1-hydroxycyclobutyl)ethanone] |
| ≤ 500 | O=C(c1oc(C2CC2)nc1C(F)F)N1CCc2[nH]cnc2[C@H]1c1nc2cc(F)ccc2o1 [Example 53, (S)-(2-cyclopropyl-4-(difluoromethyl)oxazol-5-yl)(4-(5-fluorobenzo[d]oxazol-2-yl)-6,7-dihydro-1H-imidazo[4,5-c]pyridin-5(4H)-yl)methanone] |
| 500 to 1000 | Cn1ccc(-c2nnc(C(=O)N3CCc4[nH]cnc4[C@@H]3c3nc4cccc(C(F)(F)F)c4o3)o2)n1 [Example 831, (R)-(5-(1-methyl-1H-pyrazol-3-yl)-1,3,4-oxadiazol-2-yl)(4-(7-(trifluoromethyl)benzo[d]oxazol-2-yl)-6,7-dihydro-1H-imidazo[4,5-c]pyridin-5(4H)-yl)methanone] |
| 1000 to 5000 | Cc1ccc2oc([C@H]3c4nc[nH]c4CCN3C(=O)c3nnc(-c4cnn(C(F)F)c4)o3)nc2c1 [Example 674, (R)-(5-(1-(difluoromethyl)-1H-pyrazol-4-yl)-1,3,4-oxadiazol-2-yl)(4-(5-methylbenzo[d]oxazol-2-yl)-6,7-dihydro-1H-imidazo[4,5-c]pyridin-5(4H)-yl)methanone] |
| 1000 to 5000 | CC(C)(O)c1nc(C(F)F)c(C(=O)N2CCc3[nH]cnc3[C@@H]2c2nc3cc(F)ccc3o2)o1 (single isomer, unassigned) [Example 108] |
| ≤ 500 | O=C(c1nnc(-c2ccn(C(F)F)n2)o1)N1CCc2[nH]cnc2[C@@H]1c1nc2c(F)ccc(F)c2o1 [Example 816, (R)-(4-(4,7-difluorobenzo[d]oxazol-2-yl)-6,7-dihydro-1H-imidazo[4,5-c]pyridin-5(4H)-yl)(5-(1-(difluoromethyl)-1H-pyrazol-3-yl)-1,3,4-oxadiazol-2-yl)methanone] |
| 1000 to 5000 | CN(C)CCc1ccc2c(C(=O)N3CCc4[nH]cnc4[C@H]3c3nc4cc(F)ccc4o3)cnn2c1 [Example 47, (S)-(6-(2-(dimethylamino)ethyl)pyrazolo[1,5-a]pyridin-3-yl)(4-(5-fluorobenzo[d]oxazol-2-yl)-6,7-dihydro-1H-imidazo[4,5-c]pyridin-5(4H)-yl)methanone] |
| ≤ 500 | O=C(c1ocnc1C(F)F)N1CCc2[nH]cnc2[C@H]1c1nc2ccc(F)c(F)c2o1 [Example 305, (S)-(4-(6,7-difluorobenzo[d]oxazol-2-yl)-6,7-dihydro-1H-imidazo[4,5-c]pyridin-5(4H)-yl)(4-(difluoromethyl)oxazol-5-yl)methanone] |

Same assay, conditions: A375 cells expressing R408W PAH; 24 hrs with compound, then 20 μM sepiapterin and 800 μM 13C9,15N-Phenylalanine for 4 hours; 13C-Tyrosine by LC-MS; average where tested multiple times

| AC50 [nM] | Structure (SMILES) |
| --- | --- |
| ≥ 5000 | COCCCc1ccc2c(C(=O)N3CCc4[nH]cnc4C3c3nc4cc(F)ccc4o3)cnn2c1 (centres unmarked) |
| ≥ 5000 | CC(C)(O)c1nnc(C(=O)N2CCc3[nH]cnc3C2c2nc3cc(F)ccc3o2)o1 (centres unmarked) |
| 1000 to 5000 | Cn1cnnc1C(=O)N1CCc2[nH]cnc2C1c1nc2ccc(F)cc2o1 (centres unmarked) |
| ≥ 5000 | CC(C)(O)c1cc(C(=O)N2CCc3[nH]cnc3C2c2nc3cc(F)ccc3o2)no1 (centres unmarked) |
| ≥ 5000 | CC(C)(O)c1nc(C(F)F)c(CN2CCc3[nH]cnc3C2c2nc3cc(F)ccc3o2)o1 (centres unmarked) |
| 1000 to 5000 | Cn1ncnc1C(=O)N1CCc2[nH]cnc2C1c1nc2cccc(F)c2o1 (centres unmarked) |
| ≥ 5000 | O=C(c1cnn2cc(N3CCS(=O)(=O)CC3)ccc12)N1CCc2[nH]cnc2C1c1nc2cc(F)ccc2o1 (centres unmarked) |
| 1000 to 5000 | Cc1ccc2nc(C3c4nc[nH]c4CCN3C(=O)Cc3nncs3)oc2c1 (centres unmarked) |
| 1000 to 5000 | O=C(c1oc(C2CCN2)nc1C(F)F)N1CCc2[nH]cnc2C1c1nc2cc(F)ccc2o1 (centres unmarked) |
| 1000 to 5000 | Cc1nnc(C(=O)N2CCc3[nH]cnc3C2c2nc3cc(F)ccc3o2)o1 (centres unmarked) |
| 1000 to 5000 | O=C(c1nnc(N2CC(F)C2)o1)N1CCc2[nH]cnc2C1c1nc2cc(F)ccc2o1 (centres unmarked) |
| 1000 to 5000 | O=C(c1ccnn1-c1ccccn1)N1CCc2[nH]cnc2C1c1nc2cc(F)ccc2o1 (centres unmarked) |

| Structure (SMILES) | AC50 [nM] |
| --- | --- |
| CN(C)CCNc1ccc2c(C(=O)N3CCc4[nH]cnc4C3c3nc4cc(F)ccc4o3)cnn2c1 (single isomer, unassigned) [4S enantiomer of N-[2-(dimethylamino)ethyl]-3-[4-(5-fluoro-1] | ≥ 5000 |
